In one assay the target is Human TASK-1 channels (Homo sapiens (Human), UniProt O14649). Briefly: Determination of the activity on the TASK-1 channel in Xenopus oocytes (two-microelectrode voltage clamp). To be noted: compound concentration 5 μM. Format: cell-based. The essentials: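 Xenopus oocytes were injected with human TASK-1 cRNA and recorded two days later by two-microelectrode voltage clamp, holding at −90 mV with 500 ms steps to 40 mV. Superfusion used ND96, pH 7.4, at room temperature, with rising compound concentrations; percentage inhibition of control current was fitted to a dose-response curve for IC50.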
Human TASK-1 channels, sequence (O14649 whole entry, the tested form may be a part): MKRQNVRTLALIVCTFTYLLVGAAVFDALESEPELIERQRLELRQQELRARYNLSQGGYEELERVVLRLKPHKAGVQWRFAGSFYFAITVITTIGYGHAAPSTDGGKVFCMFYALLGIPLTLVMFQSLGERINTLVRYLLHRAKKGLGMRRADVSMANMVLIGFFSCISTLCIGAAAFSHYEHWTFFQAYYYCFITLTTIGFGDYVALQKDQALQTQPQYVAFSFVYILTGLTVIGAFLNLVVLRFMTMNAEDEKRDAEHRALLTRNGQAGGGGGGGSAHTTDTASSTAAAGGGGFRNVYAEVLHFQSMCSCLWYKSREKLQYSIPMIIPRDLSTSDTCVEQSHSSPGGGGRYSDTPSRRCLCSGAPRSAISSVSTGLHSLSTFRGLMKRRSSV
For orientation: inhibition means the relative decrease from the control value, in per cent. Low readings indicate little suppression, high ones strong suppression. Molecule `CC[C@H](NC(=O)c1cc(C(=O)N2CCC[C@@H]2C)n2c1COCC2)c1c(F)cc(C(F)(F)F)cc1F` [16cm, 6-((S)-2-Methyl-pyrrolidine-1-carbonyl)-3,4-dihydro-1H-pyrrolo[2,1-c][1,4]oxazine-8-carboxylic acid [(S)-1-(2,6-difluoro-4-trifluoromethyl-phenyl)-propyl]-amide] returned an inhibition at 5 µM of 85%.

Still in this assay, the particulars now being: human TASK-1 expressed in Xenopus oocytes, room temperature; read-out: IC50 value for TASK-1 inhibition.
By IC50 is commonly meant the concentration needed to halve the response being measured. For `CC[C@@H](NC(=O)c1cc(C(=O)N2CCC[C@@H]2C)n2c1COCC2)c1cccc(OC)n1` [16z, 6-((S)-2-Methyl-pyrrolidine-1-carbonyl)-3,4-dihydro-1H-pyrrolo[2,1-c][1,4]oxazine-8-carboxylic acid [(R)-1-(6-methoxy-pyridin-2-yl)-propyl]-amide], the concentration for half-maximal inhibition (IC50) worked out at 270 nM.
Turning to `C[C@@H](NC(=O)c1cc(C(=O)N2CCC[C@@H]2C)n2c1CCCC2)c1ccc(Cl)cc1` [16ly, 3-((S)-2-Methyl-pyrrolidine-1-carbonyl)-5,6,7,8-tetrahydro-indolizine-1-carboxylic acid [(R)-1-(4-chloro-phenyl)-ethyl]-amide], the half-maximal inhibitory concentration (IC50) was 92 nM.
Regarding `CC[C@@H](NC(=O)c1cc(C(=O)N2CCN(c3ccccn3)CC2)n2c1COCC2)c1ccccc1` [16fq, 6-(4-Pyridin-2-yl-piperazine-1-carbonyl)-3,4-dihydro-1H-pyrrolo[2,1-c][1,4]oxazine-8-carboxylic acid ((R)-1-phenyl-propyl)-amide], the IC50 worked out at 1100 nM.
`CC[C@@H](NC(=O)c1cc(C(=O)N[C@H](CC)c2cccc(NS(C)(=O)=O)c2)n2c1COCC2)c1ccccc1` [16ri, 3,4-Dihydro-1H-pyrrolo[2,1-c][1,4]oxazine-6,8-dicarboxylic acid 6-{[(R)-1-(3-methanesulfonylamino-phenyl)-propyl]-amide} 8-[((R)-1-phenyl-propyl)-amide]]: the IC50 is 4300 nM.
`CC[C@@H](NC(=O)c1cc(C(=O)N2CCC[C@@H]2C)n2c1COCC2)c1ccc(C(F)(F)F)cc1C(F)(F)F` [16cp, 6-((S)-2-Methyl-pyrrolidine-1-carbonyl)-3,4-dihydro-1H-pyrrolo[2,1-c][1,4]oxazine-8-carboxylic acid [(R)-1-(2,4-bis-trifluoromethyl-phenyl)-propyl]-amide]: the half-maximal inhibitory concentration (IC50) was 970 nM.
Regarding `CC[C@@H](NC(=O)c1cc(C(=O)N[C@H](CC)c2ccccc2)n2c1COCC2)c1ccc(C(F)(F)F)nc1` [16jy, 3,4-Dihydro-1H-pyrrolo[2,1-c][1,4]oxazine-6,8-dicarboxylic acid 6-[((R)-1-phenyl-propyl)-amide] 8-{[(R)-1-(6-trifluoromethyl-pyridin-3-yl)-propyl]-amide}], the IC50 amounted to 180 nM.
In the case of `CC[C@@H](NC(=O)c1cc(C(=O)N2CCN(C)CC2c2ccccc2)n2c1COCC2)c1ccccc1` (stereo partly drawn) [16em, 6-(4-Methyl-2-phenyl-piperazine-1-carbonyl)-3,4-dihydro-1H-pyrrolo[2,1-c][1,4]oxazine-8-carboxylic acid ((R)-1-phenyl-propyl)-amide], the 50% inhibitory concentration (IC50) was found to be 600 nM.
For the molecule `CC[C@@H](NC(=O)c1cc(C(=O)N[C@H](CC)c2ccccc2)n2c1SCC2)c1ccccc1` [16kv, 2,3-Dihydro-pyrrolo[2,1-b]thiazole-5,7-dicarboxylic acid bis-[((R)-1-phenyl-propyl)-amide]], the IC50 came out at 320 nM.
Regarding `CC[C@@H](NC(=O)c1cc(C(=O)N2CCC[C@@H]2C)n2c1COCC2)c1ccc(C(F)F)cc1` [16au, 6-((S)-2-Methyl-pyrrolidine-1-carbonyl)-3,4-dihydro-1H-pyrrolo[2,1-c][1,4]oxazine-8-carboxylic acid [(R)-1-(4-difluoromethyl-phenyl)-propyl]-amide], the IC50 was 340 nM.
`CC[C@@H](NC(=O)c1cc(C(=O)N2CCC[C@@H]2COC(C)=O)n2c1COCC2)c1ccccc1` [16rg, acetic acid (R)-1-[8-((R)-1-phenyl-propylcarbamoyl)-3,4-dihydro-1H-pyrrolo[2,1-c][1,4]oxazine-6-carbonyl]-pyrrolidin-2-ylmethyl ester]: the half-inhibitory concentration (IC50) was determined as 110 nM.
Turning to `CC[C@@H](NC(=O)c1cc(C(=O)N2CCC[C@@H]2C)n2c1CCCC2)c1ccc(C(F)(F)F)nc1` [16lw, 3-((S)-2-Methyl-pyrrolidine-1-carbonyl)-5,6,7,8-tetrahydro-indolizine-1-carboxylic acid [(R)-1-(6-trifluoromethyl-pyridin-3-yl)-propyl]-amide], the IC50 stood at 600 nM.
Turning to `CC[C@@H](NC(=O)c1cc(C(=O)N2CCC[C@@H]2C)c2n1CCOC2)c1ccc(C#N)nc1` [16nj, 8-((S)-2-Methyl-pyrrolidine-1-carbonyl)-3,4-dihydro-1H-pyrrolo[2,1-c][1,4]oxazine-6-carboxylic acid [(R)-1-(6-cyano-pyridin-3-yl)-propyl]-amide], the half-maximal inhibitory concentration (IC50) turned out to be 2000 nM.
With `CC[C@@H](NC(=O)c1cc(C(=O)N2CCC[C@@H]2C)n2c1COCC2)c1ccccc1Cl` [16q, 6-((S)-2-Methyl-pyrrolidine-1-carbonyl)-3,4-dihydro-1H-pyrrolo[2,1-c][1,4]oxazine-8-carboxylic acid [(R)-1-(2-chloro-phenyl)-propyl]-amide], the IC50 worked out at 64 nM.
For the molecule `CC[C@@H](NC(=O)c1cc(C(=O)N2CCC[C@@H]2C)n2c1COCC2)c1ccc(F)c(C(F)(F)F)c1` [16bo, 6-((S)-2-Methyl-pyrrolidine-1-carbonyl)-3,4-dihydro-1H-pyrrolo[2,1-c][1,4]oxazine-8-carboxylic acid [(R)-1-(4-fluoro-3-trifluoromethyl-phenyl)-propyl]-amide], the IC50 stood at 160 nM.
Turning to `C[C@H]1CCCN1C(=O)c1cc(C(=O)N[C@H]2CCc3nc(C(F)(F)F)ccc32)c2n1CCOC2` (racemic) [16cu, 6-((S)-2-Methyl-pyrrolidine-1-carbonyl)-3,4-dihydro-1H-pyrrolo[2,1-c][1,4]oxazine-8-carboxylic acid ((S)-2-trifluoromethyl-6,7-dihydro-5H-[1]pyrindin-5-yl)-amide], the IC50 came out at 9000 nM.
On to `CC[C@@H](NC(=O)c1cc(C(=O)N2CCC[C@@H]2COC)c2n1CCOC2)c1ccccc1` [16kk, 8-((R)-2-Methoxymethyl-pyrrolidine-1-carbonyl)-3,4-dihydro-1H-pyrrolo[2,1-c][1,4]oxazine-6-carboxylic acid ((R)-1-phenyl-propyl)-amide], for which the IC50 turned out to be 130 nM.
Consider `CC[C@H](NC(=O)c1cc(C(=O)N[C@@H](CC)c2ncccn2)c2n1CCOC2)c1ccccc1` [16kc], for which the half-maximal inhibitory concentration (IC50) came to 1800 nM.
In the case of `CC(C)[C@@H](NC(=O)c1cc(C(=O)N2CCC[C@@H]2C)n2c1COCC2)c1ccc(F)cc1` [16p, 6-((S)-2-Methyl-pyrrolidine-1-carbonyl)-3,4-dihydro-1H-pyrrolo[2,1-c][1,4]oxazine-8-carboxylic acid [(R)-1-(4-fluoro-phenyl)-2-methyl-propyl]-amide], the 50% inhibitory concentration (IC50) was 380 nM.
For `CC[C@@H](NC(=O)c1cc(C(=O)NCCc2ccccn2)n2c1COCC2)c1ccccc1` [16gm, 3,4-Dihydro-1H-pyrrolo[2,1-c][1,4]oxazine-6,8-dicarboxylic acid 8-[((R)-1-phenyl-propyl)-amide] 6-[(2-pyridin-2-yl-ethyl)-amide]], the half-maximal inhibitory concentration (IC50) is 490 nM.
For the molecule `CC[C@@H](NC(=O)c1cc(C(=O)N2CCC[C@@H]2C)n2c1COCC2)c1cnc(OC)c(Cl)c1` [16b, 6-((S)-2-Methyl-pyrrolidine-1-carbonyl)-3,4-dihydro-1H-pyrrolo[2,1-c][1,4]oxazine-8-carboxylic acid [(R)-1-(5-chloro-6-methoxy-pyridin-3-yl)-propyl]-amide], the IC50 came out at 61 nM.

The record behind these values is US9284333B2, “Fused pyrroledicarboxamides and their use as pharmaceuticals” (SANOFI, priority 2012, dated 2016).
